Question: Which melting point does the source give for `O=C(c1ccc(O[C@H]2C[C@H](N3CCCCC3)C2)cc1)N1CCC(F)(F)C1` [Compound 9, 1-(trans-3-{4-[(3,3-difluoropyrrolidin-1-yl)carbonyl]phenoxy}cyclobutyl)piperidine] here?
Answer: 115.2 to 115.8 °C

Question: Which melting point does the source give for `CC(C)N1CCN(C(=O)c2ccc(O[C@H]3C[C@H](N4CCCCC4)C3)cc2)CC1` [Compound 4, 1-isopropyl-4-{4-[(trans-3-piperidin-1-ylcyclobutyl)oxy]benzoyl}piperazine] here?
Answer: 98.5 to 99 °C

Question: Which melting point does the source give for `O=C(c1ccc(O[C@H]2C[C@H](N3CCCCC3)C2)cc1)N1CCS(=O)(=O)CC1` [Compound 8, 4-{4-[(trans-3-piperidin-1-ylcyclobutyl)oxy]benzoyl}thiomorpholine 1,1-dioxide] here?
Answer: 186.5 to 186.9 °C

Question: For `O=C(c1ccc(O[C@H]2C[C@H](N3CCCCC3)C2)cc1)N1CCC(F)(F)CC1` [Compound 2, 4,4-difluoro-1-{4-[(trans-3-piperidin-1-ylcyclobutyl)oxy]benzoyl}piperidine], which melting point is on record?
Answer: 145 to 146 °C

Question: For `O=C(c1ccc(O[C@H]2C[C@H](N3CCCCC3)C2)cc1)N1CCOCC1` [Compound 1, 4-{4-[(trans-3-piperidin-1-ylcyclobutyl)oxy]benzoyl}morpholine], which melting point is on record?
Answer: 135 to 136 °C

Question: With `O=C(NCC(F)(F)F)c1ccc(O[C@H]2C[C@H](N3CCCCC3)C2)cc1` [Compound 13, 4-[(trans-3-piperidin-1-ylcyclobutyl)oxy]-N-(2,2,2-trifluoroethyl)benzamide] as the compound, how does the melting point read?
Answer: 152.9 to 153.4 °C

Question: For `O=C(Nc1cnccc1Cl)c1ccc(O[C@H]2C[C@H](N3CCCCC3)C2)cc1` [Compound 12, N-(4-chloropyridin-3-yl)-4-[(trans-3-piperidin-1-ylcyclobutyl)oxy]benzamide], which melting point is on record?
Answer: 151.6 °C

Question: Which melting point does the source give for `O=C(c1ccc(O[C@H]2C[C@H](N3CCCCC3)C2)cc1)N1CCC(O)CC1` [Compound 5, 1-{4-[(trans-3-piperidin-1-ylcyclobutyl)oxy]benzoyl}piperidin-4-ol] here?
Answer: 57.4 to 57.8 °C

Question: Which melting point does the source give for `CC(=O)N1CCN(C(=O)c2ccc(O[C@H]3C[C@H](N4CCCCC4)C3)cc2)CC1` [Compound 10, 1-acetyl-4-{4-[(trans-3-piperidin-1-ylcyclobutyl)oxy]benzoyl}piperazine] here?
Answer: 159.2 to 159.8 °C

Question: With `O=C(c1ccc(O[C@H]2C[C@H](N3CCCCC3)C2)cc1)N1CCCCC1` [Compound 3, 1-{trans-3-[4-(piperidin-1-ylcarbonyl)phenoxy]cyclobutyl}piperidine] as the compound, how does the melting point read?
Answer: 101.1 to 102.2 °C

Question: Which melting point does the source give for `O=C(c1ccc(O[C@H]2C[C@H](N3CCCCC3)C2)cc1)N1CC(O)C1` [Compound 11, 1-{4-[(trans-3-piperidin-1-ylcyclobutyl)oxy]benzoyl}azetidin-3-ol] here?
Answer: 82.2 to 82.4 °C

Reference: patent US20110098300A1, “Compounds Comprising A Cyclobutoxy Group” (UCB PHARMA, S.A., priority 2008, published 2011)
